This is an account of results in patent US20220072162A1, “MAGNETIC RESONANCE IMAGING DRUG CONTAINING A DEUTERATED NATURAL BRANCHED-CHAIN AMINO ACID, AND DIAGNOSTIC METHOD USING SAID DRUG” (LIMITED LIABILITY COMPANY "SOLVEX" ("SOLVEX" LLC), priority 2018, published 2022).

For data set [1] the following is noted: rat, in vivo, 0.021 mg/kg; cited from earlier work.
For data set [2] the following is noted: in vivo; cited from earlier work.
Data set [3] is described as follows: Accumulation of freely diffusing deuterated compounds in organs and tissues. The format is in vivo. The conditions noted are these: authors' experiments and prior art.
The conditions of data set [4]: in vivo; cited from earlier work. The source holds these as a separate data set.
On data set [5], the source says:
This exchange lowers the concentration of the deuterium label, while simultaneously increasing the background signal of heavy water (DOH), which is evenly distributed throughout the body due to rapid diffusion. This process leads to a decrease in the contrast of the image, and also prevents quantitive evaluation of deuterated component concentration by comparison with the intensity of natural DOH signal.

The next data set relates to 4T1 breast carcinoma. In words: Deuterium tomography (2H MRI) to visualize mouse 4T1 breast carcinoma in vivo (Examples 2, 4). The conditions noted are these: for accumulation in tumor tissue (2H tomograms): i.p. to 20 g mouse: 20 mg valine-d6, 30 mg L-alanine-d3, 10 mg L-phenylalanine-d7; for accumulation selectivity in various organs (2H tomograms): i.p. to 20 g mouse: 30 mg L-alanine-d3, 10 mg L-phenylalanine-d7.

Data set [6] in a line: Solubility in water for injection. The format is physicochemical. The following applies: 10 mg in 1.0 ml of water was the dose given.
The conditions of data set [7]: in vivo; cited from earlier work. The source holds these as a separate data set.
Data set [8] can be described thus: Content of valine-d6 in tissues of mice with 4T1 breast carcinoma, 2H NMR of tissue extracts (Example 5). The following applies: for [valine-d6], 30 min.: 30 min after 20 mg i.p. to 20 g mouse; for [valine-d6], 1 hour: 1 hour after 20 mg i.p. to 20 g mouse. The format is in vivo, Balb/c mice. The method, then:
After administration, the animal was kept in a separate cage with access to food and water. After a certain time after administration, the animal was devitalized by dislocation of the cervical vertebrae. Samples of animal organs and tissues were quickly removed and frozen in liquid nitrogen. Frozen samples were ground in a porcelain mortar while cooling with liquid nitrogen. A weighed portion (50-200 mg) of the obtained powder was quickly introduced into 0.4% hydrochloric acid (0.6-1.0 ml) heated to 98° C. The resulting suspension was kept at 98° C. for 15 min with occasional shaking. After adding an internal standard (3-O—(CD3)-glucose solution), the mixture was shaken and centrifuged until the solid fractions were completely separated. The solution was analyzed by ^2H NMR.

Data set [9] in a line: Distribution and metabolism of deuterated valine mixture in tissues, isotopomer ratio by LC-MS/MS (Example 6). The following applies: 60 minutes after 20 mg i.p., 49% in initial drug. The format is in vivo, Balb/c mice. The method, then: In this example, L-valine-d6/d7, partially deuterated at the α position and positions 4, 4′, was used. (S-valine-d6/d7). The total molar fraction of α-deuterated forms of valine in the initial diagnostic drug is 49%.
After administration, the animal was kept in a separate cage with access to food and water. After 60 minutes after administration, the animal was devitalized by dislocation of the cervical vertebrae. Samples of animal organs and tissues were quickly removed and frozen in liquid nitrogen. Frozen samples were ground in a porcelain mortar while cooling with liquid nitrogen. A weighed portion (about 50 mg) of the obtained powder was quickly introduced into 0.4% hydrochloric acid (1.0 ml) heated to 98° C. The resulting suspension was kept at 98° C. for 15 min with occasional shaking, then centrifuged. The solution was diluted with 3 volumes of acetonitrile, centrifuged after 15 minutes, diluted with 9 volumes of water, and centrifuged again. The ratio of isotopomers d5, d6, and d7 of valine was determined by LC-MS/MS.

For `CC(C)C(N)[14C](=O)O` (racemic) [DL-1-^14C-valine], the “increase of absolute concentration of valine in liver and kidneys over physiological” value in [1] is recorded as “no more than 0.3 nmol/g”. In addition, in data set [2], the “elimination of isotopic label in the form of CO2” value is recorded as 28% and the “organ of main accumulation” value is on record as “accumulate mainly in the pancreas”.
On to `CC(C)[C@H](N)[11C](=O)O` [1-^11C-valine], for which, in data set [2], the “organ of main accumulation” value is listed as “accumulate mainly in the pancreas”.
Turning to `[2H]O[2H]` [D2O], in data set [3], the “selective accumulation in various organs and tissues” value is “do not show selective accumulation”.
Take `[2H]O` [DOH]: the “non-toxic replacement of water in the body” value in data set [4] is reported as 10-30%.
For `[2H]C([2H])([2H])[C@H](N)C(=O)O` [L-alanine-3,3,3-d3], the “loss of deuterium in vivo” value in data set [5] is “lose deuterium in vivo very quickly”. In the data set with 4T1 breast carcinoma, the “accumulation in tumor tissue (2H tomograms)” value is “do not accumulate in tumor tissue” and the “accumulation selectivity in various organs (2H tomograms)” value is “do not show accumulation selectivity in various organs”.
Take `[2H]c1c([2H])c([2H])c(C([2H])([2H])[C@H](N)C(=O)O)c([2H])c1[2H]` [L-phenylalanine-β,β,2,3,4,5,6-d7]: in the data set on 4T1 breast carcinoma, the “accumulation in tumor tissue (2H tomograms)” value was “do not accumulate in tumor tissue” and the “accumulation selectivity in various organs (2H tomograms)” value was “do not show accumulation selectivity in various organs”. Further, the solubility entry in data set [6] is listed as “low solubility”.
For `CC(C)C(N)[14C](=O)O` (stereo not shown) [^14C-valine], in data set [7], the “time within which most of the label accumulated in liver and pancreas is included in protein” value was at most 10 min.
Consider `[2H]C([2H])(N)C(=O)O` [glycine-2,2-d2], for which, in data set [5], the “loss of deuterium in vivo” value is “lose deuterium in vivo very quickly”.
Regarding `[2H]C([2H])([2H])C([C@H](N)C(=O)O)C([2H])([2H])[2H]` [valine-d6, Valine-4,4,4,4′, 4′, 4′-D6], the “accumulation in tumor tissue compared to kidneys, heart, brain, skeletal muscles and adipose tissue” value in data set [8] (1 hour after the injection) is recorded as “increased accumulation”. In addition, the “[valine-d6], 30 min.” value in data set [8] (Brain) is 1.6 µmol/g; in [8] (Fat tissue), 4.0 µmol/g; in data set [8] (Heart), 7.5 µmol/g; in data set [8] (Kidneys), 9.3 µmol/g; in data set [8] (Liver) it was 17.9 µmol/g; in data set [8] (Lungs) it was 10.6 µmol/g. The “[valine-d6], 30 min.” value in data set [8] (Sceletal muscles) came out at 7.4 µmol/g; in data set [8] (Spleen), 14.7 µmol/g; in data set [8] (Tumor), 9.2 µmol/g. Moreover, the “[valine-d6], 1 hour” value is 2.6 µmol/g in data set [8] (Brain); 1.7 µmol/g in [8] (Fat tissue); 8.0 µmol/g in data set [8] (Heart); 7.5 µmol/g in [8] (Kidneys); 11.5 µmol/g in data set [8] (Liver); 8.8 µmol/g in data set [8] (Lungs). Besides, the “[valine-d6], 1 hour” value in data set [8] (Sceletal muscles) stood at 7.7 µmol/g; in [8] (Spleen), 14.1 µmol/g; in [8] (Tumor), 9.8 µmol/g. For the same molecule, the “Tumor:tissue ratio, 30 min.” value in [8] (Tumor:Brain) was 5.8; in [8] (Tumor:Fat tissue), 2.3; in data set [8] (Tumor:Heart), 1.2; in [8] (Tumor:Kidneys), 0.99; in data set [8] (Tumor:Liver), 0.51; in data set [8] (Tumor:Lungs) it was 0.87. The “Tumor:tissue ratio, 30 min.” value in data set [8] (Tumor:Sceletal muscles) is reported as 1.2; in [8] (Tumor:Spleen), 0.63. Further, the “Tumor:tissue ratio, 1 hour” value in data set [8] (Tumor:Brain) is given as 3.8; in data set [8] (Tumor:Fat tissue) it was 5.8; in data set [8] (Tumor:Heart), 1.2; in data set [8] (Tumor:Kidneys) it was 1.3; in [8] (Tumor:Liver), 0.85; in data set [8] (Tumor:Lungs) it was 1.1. The “Tumor:tissue ratio, 1 hour” value in data set [8] (Tumor:Sceletal muscles) turned out to be 1.3; in [8] (Tumor:Spleen), 0.70. In data set [8] (physiological free valine about 0.5 μmol/g), the “excess over the physiological concentration of free valine in animal tissues” value is on record as “more than 10 fold”.
Take “Valine-2,4,4,4,4 “, 4”, 4′-D7 (mixed with valine-4,4,4,4 “, 4”, 4′-D6) [L-valine-d6/d7]”: the “total mole fraction of α-deuterated valine” value is 11% in data set [9] (adipose tissue); 12% in [9] (blood); 5% in [9] (brain); 17% in data set [9] (kidneys); 11% in data set [9] (liver); 11% in data set [9] (skeletal muscles). The “total mole fraction of α-deuterated valine” value in [9] (spleen) was 13%; in data set [9] (tumor), 12%.
